Data reported in patent publication US7012060B1, “TNF receptor and steroid hormone in a combined therapy” (priority 1995, dated 2006).
Marks after values point to notes of the source that are not given here.

Experiments:
[1] = test system: septic shock induced by LPS + D-Galactosamine, in mice; assay: LPS+D-Galactosamine-induced septic shock model; assay type: in vivo, SPF female BALB/c inbred mice
Description: The experiments were carried out in vivo on mice. The septic shock was induced by an i.p. administration of a mixture of LPS (0.1 μg/mouse) and D-Galactosamine (18 mg/mouse).
The treatment schedule for r-hTBP-1 based on repeated administrations (the total dose was divided into 4 administrations given at time 0 and […] and 24 hours after), was adopted. CHO r-hTBP-1 was tested, alone or in combination with DHEA, at dose levels of 62.5 and 125 μg/mouse (total dose).
DHEA was tested both in a single administration injected i.p. one hour before and contemporaneously to the septic shock-inducing agent at doses encompassed between 100 and 2.000 μg/mouse and in repeated treatment with the total dose (250 μg/mouse) divided into 4 injections given within 24 hours.
The above treatment schedules of DHEA (doses from 250 to 1,500 μl g/mouse) were followed also in combination with r-hTBP-1 which was tested at the total dose varying from 62.5 to 125 μg/mouse (divided into 4 administrations).
SPF female BALB/c inbred mice, 6–8 weeks (about 18–20 g b.w.), from Charles River were used throughout the whole study after an acclimatisation period of at least 7 days.
Unless otherwise specified, in all the experiments the mice were randomly divided into groups of 10 animals each.
Both substances were dissolved in saline. The mixture of LPS (0.1 μg/mouse) and D-Galactosamine (18 mg/mouse) was prepared by mixing equal volumes of these substances. The mixture was subsequently injected to animals by the i.p. route. This dose was selected under precious experiments as that inducing around 80% mortality calculated as the number of dead vs. total number of mice for each croup. The lethality was monitored after 24, 48, 72 and 96 hours and at day 7 post-treatment.
The drug was diluted in saline and injected by repeated administrations, i.e. i.v. immediately before the inoculum of LPS plus D-Galactosamine and s.c. 3, 6 and 24 hours later.
The effects of DHEA, alone or in combination with r-hTBP-1, were assayed after single i.p. administrations at different times in respect to LPS+D-Galactosamine injection; in particular, it was administered 1 hour before and contemporaneously to the septic shock-inducing agent.
A repeated treatment schedule was also investigated in which DHEA was administered at time 0 (septic shock induction) and 3, 6 and 24 hours later. DHEA was initially vehicled in a mixture of 2.5% alcohol and 10% rabbit serum in saline. To improve the solubility and standardise the preparation, the steroid was successively dispersed in a mixture of 2.5% alcohol and 10% phospholipid emulsion in saline.
The primary end point was the survival rate at 48 hours after induction of septic shock. The comparison of the effects of each treatment group vs. controls and among treatment groups was effected by Fisher's exact test, one-tailed. The same comparison was also performed at the other time points. The results in each treatment group were expressed as percent survival.
In all the experiments, percent survival values were calculated using the survival Tables for the follow up studies (Armitage P. Cap. XIV. Tavole di sopravvivenza in Statistica Medica, Feltrinelli, Milano). The χ^2-test was applied to each observation time by comparing the DHEA+r-hTBP-1 groups to the other groups.

[2] = test system: septic shock induced by lipopolysaccharides (LPS) alone; conditions: mice; cited from earlier work
TNF-α = conditions: both in vivo and in vitro; cited from earlier work
herpes virus type 2 = conditions: cited from earlier work
West Nile virus = conditions: cited from earlier work
coxsackievirus B4 = conditions: cited from earlier work
Semliki Forest virus = conditions: cited from earlier work

Compound: C[C@]12CC[C@H](O)CC1=CC[C@@H]1[C@@H]2CC[C@]2(C)C(=O)CC[C@@H]12 [DHEA, Dehydroepiandrosterone]
- % cumulative survival ([1]; DHEA 2000 μg/mouse i.p. 1 hour before LPS + D-Gal, saline 10% rabbit serum, 24 hrs, 1st exp): 100^a %
- % cumulative survival ([1]; DHEA 2000 μg/mouse i.p. 1 hour before LPS + D-Gal, saline 10% rabbit serum, 24 hrs, 2nd exp): 100^a %
- % cumulative survival ([1]; DHEA 2000 μg/mouse i.p. 1 hour before LPS + D-Gal, saline 10% rabbit serum, 48 hrs, 1st exp): 100^a %
- % cumulative survival ([1]; DHEA 2000 μg/mouse i.p. 1 hour before LPS + D-Gal, saline 10% rabbit serum, 48 hrs, 2nd exp): 100^a %
- % cumulative survival ([1]; DHEA 2000 μg/mouse i.p. 1 hour before LPS + D-Gal, saline 10% rabbit serum, 72 hrs, 1st exp): 100^a %
- % cumulative survival ([1]; DHEA 2000 μg/mouse i.p. 1 hour before LPS + D-Gal, saline 10% rabbit serum, 72 hrs, 2nd exp): 100^a %
- % cumulative survival ([1]; DHEA 2000 μg/mouse i.p. 1 hour before LPS + D-Gal, saline 10% rabbit serum, 96 hrs, 1st exp): 100^a %
- % cumulative survival ([1]; DHEA 2000 μg/mouse i.p. 1 hour before LPS + D-Gal, saline 10% rabbit serum, 96 hrs, 2nd exp): 100^a %
- survival ([1]; DHEA 1.000 and 1.500 μg/mouse alone): 0–40%
- protective effects ([1]; DHEA at doses higher than 1.000 μg/mouse, 1 hour before LPS+D-Galactosamine): statistically significant protective effects
- protective effects ([1]; DHEA up to 1.000 μg/mouse, 1 hour before LPS+D-Galactosamine): No protective effects
- % cumulative survival ([1]; Table 2, DHEA 1000 μg/mouse i.p. 1 hour before LPS + D-Gal, saline 10% rabbit serum, 24 hrs): 0%
- % cumulative survival ([1]; Table 2, DHEA 1000 μg/mouse i.p. 1 hour before LPS + D-Gal, saline 10% rabbit serum, 48 hrs): 0%
- % cumulative survival ([1]; Table 2, DHEA 1000 μg/mouse i.p. 1 hour before LPS + D-Gal, saline 10% rabbit serum, 72 hrs): 0%
- % cumulative survival ([1]; Table 2, DHEA 1000 μg/mouse i.p. 1 hour before LPS + D-Gal, saline 10% rabbit serum, 96 hrs): 0%
- % cumulative survival ([1]; Table 2, DHEA 1500 μg/mouse i.p. 1 hour before LPS + D-Gal, saline 10% rabbit serum, 24 hrs): 40%
- % cumulative survival ([1]; Table 2, DHEA 1500 μg/mouse i.p. 1 hour before LPS + D-Gal, saline 10% rabbit serum, 48 hrs): 40%
- % cumulative survival ([1]; Table 2, DHEA 1500 μg/mouse i.p. 1 hour before LPS + D-Gal, saline 10% rabbit serum, 72 hrs): 20%
- % cumulative survival ([1]; Table 2, DHEA 1500 μg/mouse i.p. 1 hour before LPS + D-Gal, saline 10% rabbit serum, 96 hrs): 20%
- % cumulative survival ([1]; Table 4, DHEA 250 μg single injection at time 0 i.p., NaCl 10% PLE, 24 hr): 40%
- % cumulative survival ([1]; Table 4, DHEA 250 μg single injection at time 0 i.p., NaCl 10% PLE, 48 hr): 30%
- % cumulative survival ([1]; Table 4, DHEA 250 μg single injection at time 0 i.p., NaCl 10% PLE, 72 hr): 30%
- % cumulative survival ([1]; Table 4, DHEA 250 μg single injection at time 0 i.p., NaCl 10% PLE, 96 hr): 30%
- % cumulative survival ([1]; Table 4, DHEA 250 μg single injection at time 0 i.p., NaCl 10% RS, 24 hr): 30%
- % cumulative survival ([1]; Table 4, DHEA 250 μg single injection at time 0 i.p., NaCl 10% RS, 48 hr): 30%
- % cumulative survival ([1]; Table 4, DHEA 250 μg single injection at time 0 i.p., NaCl 10% RS, 72 hr): 30%
- % cumulative survival ([1]; Table 4, DHEA 250 μg single injection at time 0 i.p., NaCl 10% RS, 96 hr): 30%
- % cumulative survival ([1]; Table 5 group D, DHEA 250 μg single injection at time 0 i.p., NaCl 10% PLE, 24 hrs, 1st exp.): 40%
- % cumulative survival ([1]; Table 5 group D, DHEA 250 μg single injection at time 0 i.p., NaCl 10% PLE, 48 hrs, 1st exp.): 30%
- % cumulative survival ([1]; Table 5 group D, DHEA 250 μg single injection at time 0 i.p., NaCl 10% PLE, 72 hrs, 1st exp.): 30%
- % cumulative survival ([1]; Table 5 group D, DHEA 250 μg single injection at time 0 i.p., NaCl 10% PLE, 96 hrs, 1st exp.): 30%
- % cumulative survival ([1]; Table 5 group E, DHEA 62.5 μg x4 at time 0, 3, 6 and 24 hours i.p., NaCl 10% PLE, 24 hrs, 1st exp.): 40%
- % cumulative survival ([1]; Table 5 group E, DHEA 62.5 μg x4 at time 0, 3, 6 and 24 hours i.p., NaCl 10% PLE, 24 hrs, 2nd exp.): 40%
- % cumulative survival ([1]; Table 5 group E, DHEA 62.5 μg x4 at time 0, 3, 6 and 24 hours i.p., NaCl 10% PLE, 48 hrs, 1st exp.): 40%
- % cumulative survival ([1]; Table 5 group E, DHEA 62.5 μg x4 at time 0, 3, 6 and 24 hours i.p., NaCl 10% PLE, 48 hrs, 2nd exp.): 40%
- % cumulative survival ([1]; Table 5 group E, DHEA 62.5 μg x4 at time 0, 3, 6 and 24 hours i.p., NaCl 10% PLE, 72 hrs, 1st exp.): 40%
- % cumulative survival ([1]; Table 5 group E, DHEA 62.5 μg x4 at time 0, 3, 6 and 24 hours i.p., NaCl 10% PLE, 72 hrs, 2nd exp.): 40%
- % cumulative survival ([1]; Table 5 group E, DHEA 62.5 μg x4 at time 0, 3, 6 and 24 hours i.p., NaCl 10% PLE, 96 hrs, 1st exp.): 40%
- % cumulative survival ([1]; Table 5 group E, DHEA 62.5 μg x4 at time 0, 3, 6 and 24 hours i.p., NaCl 10% PLE, 96 hrs, 2nd exp.): 40%
- protection from death (survival) ([1]; at least 1.500 μg/mouse DHEA, 1 hour before LPS+D-Galactosamine): 70%
- protection from septic shock [2]: protecting mice from septic shock
- TNF-α levels after LPS administration (TNF-α): significantly blocked
- systemic resistance against lethal viral infections (herpes virus type 2): regulates the systemic resistance
- systemic resistance against lethal viral infections (West Nile virus): regulates the systemic resistance
- systemic resistance against lethal viral infections (coxsackievirus B4): regulates the systemic resistance
- systemic resistance against lethal viral infections (Semliki Forest virus): regulates the systemic resistance
